From patent US6887827B2, “Combinations of herbicidal aromatic carboxylic acids and safeners” (Bayer CropScience GmbH, priority 2002, dated 2005)

Tested on: Triticum aestivum (wheat)
Test: Post-emergence crop plant selectivity field trial: visually scored damage to wheat
Type: in vivo
Conditions: wheat at 3-tiller growth stage, 39 days after treatment, average of three trials
Procedure: 1. Post-Emergence Effect on Weeds and Crop Plant Selectivity (Field Trials) Crop plants were grown outdoors on plots under natural outdoor conditions, and seeds or rhizome pieces of typical harmful plants were laid out or the natural weed growth was utilized. Treatment with the compositions according to the invention was carried out after the harmful plants had emerged and the crop plants were at the growth stage stated below. After the application, the effect of the composition was scored visually by comparison with untreated controls.

Compound | Phytotox (%) on TRZAS (140 g ai/ha) [%] | Phytotox (%) on TRZAS (210 g ai/ha) [%] | Phytotox (%) on TRZAS (280 g ai/ha) [%] | Phytotox (%) on TRZAS (50 g ai/ha) [%] | Phytotox (%) on TRZAS (120 g ai/ha) [%]
COc1c(Cl)ccc(Cl)c1C(=O)O [(A1), 3,6-dichloro-2-methoxybenzoic acid] | 27 | 25 | 27 | – | –
CCOC(=O)C1=NN(c2ccc(Cl)cc2Cl)C(C)(C(=O)OCC)C1 (centres unmarked) [(B1.1.1), ethyl 1-(2,4-dichlorophenyl)-5-(ethoxycarbonyl)-5-methyl-2-pyrazoline-3-carboxylate] | – | – | – | 0 | 0
